IC50 data for 48 compounds are collected here from patent US20130116227A1, “BIARYL AMIDE DERIVATIVE OR PHARMACEUTICALLY ACCEPTABLE SALT THEREOF” (DAINIPPON SUMITOMO PHARMA CO., LTD., priority 2010, published 2013).

The experiment deals with T1, aldosterone receptor (Rattus norvegicus, UniProt P22199).
T1 construct: centrifuged at 105,000 g for 30 minutes, and then a supernatant was collected as a renal soluble fraction; from tissue; host or cells: rat kidney (adrenalectomized rat), 105,000 g supernatant (cytosol)
T1 sequence (P22199 1-981): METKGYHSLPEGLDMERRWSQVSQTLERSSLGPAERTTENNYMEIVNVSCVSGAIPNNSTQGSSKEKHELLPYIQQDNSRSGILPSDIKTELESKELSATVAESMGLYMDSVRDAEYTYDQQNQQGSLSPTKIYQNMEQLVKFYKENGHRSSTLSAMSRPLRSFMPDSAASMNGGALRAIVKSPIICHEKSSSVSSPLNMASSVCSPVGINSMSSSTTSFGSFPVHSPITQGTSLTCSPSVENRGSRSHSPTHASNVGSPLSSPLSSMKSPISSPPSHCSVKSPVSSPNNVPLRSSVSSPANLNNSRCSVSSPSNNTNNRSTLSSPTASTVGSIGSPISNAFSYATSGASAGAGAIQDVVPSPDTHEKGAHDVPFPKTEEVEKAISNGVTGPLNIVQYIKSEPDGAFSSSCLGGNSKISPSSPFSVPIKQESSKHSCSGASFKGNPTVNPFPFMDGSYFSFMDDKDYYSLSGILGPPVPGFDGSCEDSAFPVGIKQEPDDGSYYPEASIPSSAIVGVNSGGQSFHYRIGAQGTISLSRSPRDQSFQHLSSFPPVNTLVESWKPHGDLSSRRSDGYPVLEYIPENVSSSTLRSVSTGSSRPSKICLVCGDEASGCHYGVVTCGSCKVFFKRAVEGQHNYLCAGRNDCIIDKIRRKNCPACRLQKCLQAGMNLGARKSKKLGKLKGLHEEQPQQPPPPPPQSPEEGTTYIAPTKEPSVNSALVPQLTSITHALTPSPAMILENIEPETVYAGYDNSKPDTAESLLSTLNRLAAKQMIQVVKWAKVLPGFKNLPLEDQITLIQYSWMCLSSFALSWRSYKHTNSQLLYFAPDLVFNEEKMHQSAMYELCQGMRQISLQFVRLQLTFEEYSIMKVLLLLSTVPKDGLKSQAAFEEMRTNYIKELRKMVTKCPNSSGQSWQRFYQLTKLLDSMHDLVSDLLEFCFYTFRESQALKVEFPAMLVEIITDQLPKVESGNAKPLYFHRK
As to the kind of experiment: Binding inhibition test for aldosterone receptor ([3H]aldosterone, rat renal soluble fraction). Conditions: [3H]aldosterone 2 nM, rat renal soluble fraction, in the presence of 2 μM RU-486, 4° C. about 18 hours; read-out: MR IC50. On the procedure: Binding Inhibition Test for Aldosterone Receptor
A rat was layed open in flank regions (on both sides) to remove both adrenal glands. After stitching up the incision, the rat was returnd to a breeding cage again. After removing the kidney from the rat reared for about 3 to 5 days, the kidney was homogenized in 0.1 M Tris-HCl, 0.25M sucrose, 0.1M Na2MoO4 and 2 mM DTT buffer solution (pH7.4). The resultant was centrifuged at 105,000 g for 30 minutes, and then a supernatant was collected as a renal soluble fraction.
The rat renal soluble fraction (0.5 to 1.5 mg), a labeled ligand [^3H] aldosterone (2 nM) and a test article were reacted in the presence of 2 μM RU-486 (glucocorticoid receptor antagonist) in 100 μL of total amounts at 4° C. for about 18 hours. Afterwards, to the reaction solution was added 50 μL of 5% dextran-coated activated charcoal, and the mixture was immingled, and then centrifuged at 3,000 g for 5 minutes. Then, a supernatant (100 μL) was collected and mixed with a liquid scintillator ACS-II (Amersham) (3.5 mL), and then analyzed its radioactivity by a liquid scintillation counter (manufactured by Packard, Tri Carb 2700TR). A non-specific binding was obtained by addition of 2 μM aldosterone to a reaction solution. […]
Binding inhibition rate (%)=100−{(B−N)/(B0−N)}×100
B: labeled ligand binding amounts in the presence of a test article and a labeled ligand
B0: labeled ligand binding amounts in the absence of a test article
N: labeled ligand binding amounts in the presence of excess aldosterone (2 μM)
Test example 1 was carried out for compounds obtained in the Examples.
Regarding `COc1cc(C(=O)Nc2ccc(-c3ccc(O)cc3C(F)(F)F)c(CO)c2)ccc1S(N)(=O)=O` [Example 315], the IC50 (in general, the concentration that inhibits the measured activity by half) was found to be 0.42 µM.

Consider `COc1cc(C(=O)Nc2ccc(-c3ccc(OCCO)cc3C(F)(F)F)c(CO)c2)ccc1S(N)(=O)=O` [Example 320], for which the IC50 is 2.5 µM.

For `COc1cc(C(=O)Nc2ccc(-c3ccccc3C(F)(F)F)c(CO)c2)ccc1S(N)(=O)=O` [Example 323-2], the half-maximal inhibitory concentration (IC50) came out at 0.25 µM.

Regarding `COc1cc(C(=O)Nc2ccc(-c3ccccc3C(F)(F)F)c(CCl)c2)ccc1S(N)(=O)=O` [Example 324], the half-maximal inhibitory concentration (IC50) was 0.19 µM.

Turning to `COc1cc(C(=O)Nc2ccc(-c3ccccc3C(F)(F)F)c(CNCc3ccco3)c2)ccc1S(N)(=O)=O` [Example 329], the half-inhibitory concentration (IC50) came to 0.22 µM.

In the case of `COc1cc(C(=O)Nc2ccc(-c3ccccc3C(F)(F)F)c(COCCCO)c2)ccc1S(N)(=O)=O` [Example 333], the half-inhibitory concentration (IC50) was 0.28 µM.

As to `COc1cc(C(=O)Nc2ccc(-c3ccccc3OC(F)(F)F)c(CCO)c2)ccc1S(N)(=O)=O` [Example 335], the half-maximal inhibitory concentration (IC50) is 0.35 µM.

`COc1cc(C(=O)Nc2ccc(-c3ccccc3CN3CCOCC3)c(C)c2)ccc1S(N)(=O)=O` [Example 337]: the 50% inhibitory concentration (IC50) worked out at 1.1 µM.

In the case of `COc1cc(C(=O)Nc2ccc(-c3ccccc3N3CCCCC3)c(C)c2)ccc1S(N)(=O)=O` [Example 342], the IC50 was 0.47 µM.

As for `COc1cc(C(=O)Nc2ccc(-c3ccccc3N3C[C@@H](C)O[C@@H](C)C3)c(C)c2)ccc1S(N)(=O)=O` [Example 345], the half-inhibitory concentration (IC50) turned out to be 0.14 µM.

With `COc1cc(C(=O)Nc2ccc(-c3ccccc3NC3CCCC3)c(C)c2)ccc1S(N)(=O)=O` [Example 346], the IC50 was 1.1 µM.

On to `COc1cc(C(=O)Nc2ccc(-c3ccccc3NC(C)C)c(C)c2)ccc1S(N)(=O)=O` [Example 351], for which the IC50 was 1.2 µM.

In the case of `CCC(CC)NCc1cc(NC(=O)c2ccc(S(N)(=O)=O)c(OC)c2)ccc1-c1ccccc1C(F)(F)F` [Example 355], the concentration for half-maximal inhibition (IC50) worked out at 1 µM.

As for `COCCNCc1cc(NC(=O)c2ccc(S(N)(=O)=O)c(OC)c2)ccc1-c1ccccc1C(F)(F)F` [Example 357], the IC50 stood at 0.13 µM.

For the compound `COc1cc(C(=O)Nc2ccc(-c3ccccc3C(F)(F)F)c(CC#N)c2)ccc1S(N)(=O)=O` [Example 363], the half-inhibitory concentration (IC50) stood at 0.75 µM.

As for `COCCNCc1cc(NC(=O)c2ccc(S(N)(=O)=O)c(OC)c2)ccc1-c1ccccc1OC(F)(F)F` [Example 364], the concentration for half-maximal inhibition (IC50) worked out at 0.54 µM.

In the case of `CCC(CC)NCc1cc(NC(=O)c2ccc(S(N)(=O)=O)c(OC)c2)ccc1-c1ccccc1OC(F)(F)F` [Example 365], the IC50 was 0.46 µM.

With `COc1cc(C(=O)Nc2ccc(-c3ccccc3C(F)(F)F)c(CN3CC(C)OC(C)C3)c2)ccc1S(N)(=O)=O` (stereo not drawn) [Example 371], the IC50 was 0.45 µM.

As for `CCOCc1cc(NC(=O)c2ccc(S(N)(=O)=O)c(OC)c2)ccc1-c1ccccc1C(F)(F)F` [Example 373], the IC50 came out at 0.1 µM.

On to `COc1cc(C(=O)Nc2ccc(-c3ccccc3C(F)(F)F)c(CN3CC[C@H](F)C3)c2)ccc1S(N)(=O)=O` [Example 376], for which the half-maximal inhibitory concentration (IC50) was 0.38 µM.

`COc1cc(C(=O)Nc2ccc(-c3ccccc3C(F)(F)F)c(CN3CC(F)(F)C3)c2)ccc1S(N)(=O)=O` [Example 385]: the concentration for half-maximal inhibition (IC50) stood at 0.63 µM.

For `COc1cc(C(=O)Nc2ccc(-c3ccccc3C(F)(F)F)c(CN3CCSCC3)c2)ccc1S(N)(=O)=O` [Example 387], the IC50 worked out at 0.36 µM.

`COc1cc(C(=O)Nc2ccc(-c3ccccc3C(F)(F)F)c(CNCC(F)F)c2)ccc1S(N)(=O)=O` [Example 389]: the IC50 amounted to 0.56 µM.

`COc1cc(C(=O)Nc2ccc(-c3ccccc3C(F)(F)F)c(CN3CCC(F)CC3)c2)ccc1S(N)(=O)=O` [Example 392]: the IC50 stood at 0.45 µM.

In the case of `COc1cc(C(=O)Nc2ccc(-c3ccccc3C(F)(F)F)c(CN3CCC4(CC3)OCCO4)c2)ccc1S(N)(=O)=O` [Example 393], the IC50 worked out at 0.52 µM.

`COc1cc(C(=O)Nc2ccc(-c3ccccc3C(F)(F)F)c(CN3CCC4(C3)OCCO4)c2)ccc1S(N)(=O)=O` [Example 395]: the IC50 came out at 0.19 µM.

In the case of `COc1cc(C(=O)Nc2ccc(-c3ccccc3C(F)(F)F)c(CNC3CC3)c2)ccc1S(N)(=O)=O` [Example 403], the half-inhibitory concentration (IC50) was determined as 0.63 µM.

For the compound `COc1cc(C(=O)Nc2ccc(-c3ccccc3C(F)(F)F)c(Cn3cccn3)c2)ccc1S(N)(=O)=O` [Example 405], the half-inhibitory concentration (IC50) amounted to 0.21 µM.

With `COc1cc(C(=O)Nc2ccc(-c3ccccc3C(F)(F)F)c(Cn3nccn3)c2)ccc1S(N)(=O)=O` [Example 407], the IC50 came to 0.26 µM.

With `COc1cc(C(=O)Nc2ccc(-c3ccccc3C(F)(F)F)c(COC3CCOCC3)c2)ccc1S(N)(=O)=O` [Example 410], the IC50 turned out to be 0.52 µM.

Turning to `COc1cc(NC(=O)c2ccc(-c3ccc(F)cc3F)c(CNCC(F)F)c2)ccc1S(N)(=O)=O` [Example 414], the IC50 was found to be 1.7 µM.

With `COc1cc(NC(=O)c2ccc(-c3ccccc3C)c(CNCC(F)F)c2)ccc1S(N)(=O)=O` [Example 415], the 50% inhibitory concentration (IC50) came out at 0.63 µM.

On to `COc1cc(NC(=O)c2ccc(-c3ccccc3F)c(CNCC(F)F)c2)ccc1S(N)(=O)=O` [Example 419], for which the IC50 was 1.2 µM.

As for `COc1cc(NC(=O)c2ccc(-c3ccc(F)cc3Cl)c(CNCC(F)F)c2)ccc1S(N)(=O)=O` [Example 426], the half-inhibitory concentration (IC50) came out at 0.58 µM.

With `COc1cc(NC(=O)c2ccc(-c3ccccc3CC(F)(F)F)c(CNCC(F)F)c2)ccc1S(N)(=O)=O` [Example 438], the IC50 was less than 10 µM.

`COc1cc(NC(=O)c2ccc(-c3ccc(C)cc3C(F)(F)F)c(CNCC(F)F)c2)ccc1S(N)(=O)=O` [Example 440]: the half-inhibitory concentration (IC50) is less than 10 µM.

As to `COc1cc(NC(=O)c2ccc(-c3cc(C)ccc3C(F)(F)F)c(CNCC(F)F)c2)ccc1S(N)(=O)=O` [Example 443], the IC50 is less than 10 µM.

Turning to `COc1cc(NC(=O)c2ccc(-c3ccccc3C3CC3)c(CNCC(F)F)c2)ccc1S(N)(=O)=O` [Example 448], the half-maximal inhibitory concentration (IC50) was less than 10 µM.

`COc1cc(NC(=O)c2ccc(-c3ccccc3Cl)c(CNCC(F)F)c2)ccc1S(N)(=O)=O` [Example 451]: the concentration for half-maximal inhibition (IC50) turned out to be 0.55 µM.

Regarding `COc1cc(NC(=O)c2ccc(-c3cccc(Cl)c3Cl)c(CNCC(F)F)c2)ccc1S(N)(=O)=O` [Example 454], the IC50 is less than 10 µM.

On to `COc1cc(NC(=O)c2ccc(-c3cc(F)ccc3Cl)c(CNCC(F)F)c2)ccc1S(N)(=O)=O` [Example 457], for which the IC50 was less than 10 µM.

Take `COc1cc(NC(=O)c2ccc(-c3ccc(C(F)(F)F)cc3Cl)c(CNCC(F)F)c2)ccc1S(N)(=O)=O` [Example 460]: the IC50 is less than 10 µM.

As to `CCOc1ncccc1-c1ccc(C(=O)Nc2ccc(S(N)(=O)=O)c(OC)c2)cc1CNCC(F)F` [Example 463], the concentration for half-maximal inhibition (IC50) was less than 10 µM.

Turning to `COc1cc(NC(=O)c2ccc(-c3ccccc3C(C)(F)F)c(CNCC(F)F)c2)ccc1S(N)(=O)=O` [Example 469], the IC50 is less than 10 µM.

In the case of `COc1cc(NC(=O)c2ccc(-c3ccc(F)cc3C3CC3)c(CNCC(F)F)c2)ccc1S(N)(=O)=O` [Example 470], the IC50 was less than 10 µM.

On to `COc1cc(NC(=O)c2ccc(-c3ccc(Cl)cc3C(F)(F)F)c(CNCC(F)F)c2)ccc1S(N)(=O)=O` [Example 474], for which the half-maximal inhibitory concentration (IC50) was less than 10 µM.

As to `COc1cc(NC(=O)c2ccc(-c3ccccc3OC(F)(F)C(F)F)c(CNCC(F)F)c2)ccc1S(N)(=O)=O` [Example 478], the IC50 was less than 10 µM.

With `CCCOc1ncccc1-c1ccc(C(=O)Nc2ccc(S(N)(=O)=O)c(OC)c2)cc1CNCC(F)F` [Example 481], the IC50 was less than 10 µM.
